Where two headings read alike, the source gives them in different places.
How the values were obtained:
[1] = at the dose and in the condition of the same Table I line; cited from earlier work
[2] = system: superficial dorsal horn neurons; experiment: In vivo single-unit recording, noxious pinch-evoked responses, spinal superfusion of antagonists; set-up: species or system mice; conditions: pinch at end of 1 min superfusion
Description: Akiyama T et al., The Journal of neuroscience: the official journal of the Society for Neuroscience 29(20):6691-6699 (2009)]. Anesthesia was induced by sodium pentobarbital (60 mg/kg ip) and maintained by supplemental injections (10-20 mg/kg/hr). […] A tungsten microelectrode recorded single-unit activity in the lumbar spinal cord. A chemical search strategy [Akiyama T et al., Journal of neurophysiology 102(4):2176-2183 2009; […] Units were classified as wide dynamic range (WDR)-type if they responded in a graded manner to innocuous mechanical stimulation (brushing, cotton wisp) and noxious pinch, or nociceptive-specific (NS) if they responded to noxious pinch (and to the 55 mN von Frey stimulus) but not to the cotton wisp or brush stimuli. […] Akiyama T et al., The Journal of neuroscience: the official journal of the Society for Neuroscience 29(20):6691-6699 (2009)]. […] At the end of the antagonist superfusion, the noxious pinch stimulus was delivered again at the same site on the receptive field. Thirty minutes later, the noxious pinch stimulus was delivered in the same manner. Action potentials were recorded to a computer and counted using Chart software (AD Instruments, Colorado Springs Colo.) and Spike2 software (CED Instruments). […]

[3] = system: histamine-evoked scratching; conditions: intrathecal L-733060 22.7 nmol or RC-3095 0.3 nmol, data adapted from Akiyama et al. 2013, cited from earlier work
[4] = system: superficial dorsal horn neurons; experiment: In vivo single-unit recording, id histamine-evoked firing, spinal superfusion of antagonists; set-up: species or system mice; conditions: for Percentages of dorsal horn units that exhibited a decrease of 70% or more in firing rate following spinal superfusion of antagonists: id histamine-evoked firing, superfusion 1 min, RC-3095 20 μM, L-733060 200 μM, CNQX 100 μM
Description: (§1) Akiyama T et al., The Journal of neuroscience: the official journal of the Society for Neuroscience 29(20):6691-6699 (2009)]. Anesthesia was induced by sodium pentobarbital (60 mg/kg ip) and maintained by supplemental injections (10-20 mg/kg/hr). […] A tungsten microelectrode recorded single-unit activity in the lumbar spinal cord. A chemical search strategy [Akiyama T et al., Journal of neurophysiology 102(4):2176-2183 2009; […] Following mechanical stimulation, histamine (50 μg) was injected id within the same receptive field at a different location via a separate injection cannula. Following the id histamine injection, we tested the effects of antagonists for the receptors of NK1, GRP, or AMPA/kainate in the same manner as described above for chloroquine. […] Following the AITC application, we tested the effects of the NK-1 receptor antagonist, the AMPA/kainate receptor antagonist, or a combination of both antagonists in the same manner as described above for chloroquine. Action potentials were recorded to a computer and counted using Chart software (AD Instruments, Colorado Springs Colo.) and Spike2 software (CED Instruments). […] Mean peak responses elicited by noxious pinch were compared by one way repeated-measures ANOVA followed by post-hoc Bonferroni test, with p<0.05 set as significant. At the end of each experiment, an electrolytic lesion was made at the spinal cord recording site.

[5] = system: superficial dorsal horn neurons; experiment: In vivo single-unit recording, id chloroquine-evoked firing, spinal superfusion of antagonists; set-up: species or system mice
Description: (§2) The single-unit recording from the lumbar spinal cord was conducted as previously detailed [Akiyama T et al., Journal of neurophysiology 102(4):2176-2183 (2009); Akiyama T et al., The Journal of neuroscience: the official journal of the Society for Neuroscience 29(20):6691-6699 (2009)]. Anesthesia was induced by sodium pentobarbital (60 mg/kg ip) and maintained by supplemental injections (10-20 mg/kg/hr). A gravity-driven perfusion system allowed artificial cerebrospinal fluid (Krebs: 117 mM NaCl, 3.6 mM KCl, 2.5 mM CaCl2, 1.2 mM MgCl2, 1.2 mM NaH2PO4, 25 mM NaHCO3 and 11 mM glucose which was equilibrated with 95% 02 and 5% CO2 at 37° C.) to be superfused continually over the exposed lumbosacral spinal cord [Akiyama T et al., PloS one 6(7):e22665 (2011)]. A tungsten microelectrode recorded single-unit activity in the lumbar spinal cord. A chemical search strategy [Akiyama T et al., Journal of neurophysiology 102(4):2176-2183 2009; Akiyama T et al., The Journal of neuroscience: the official journal of the Society for Neuroscience 29(20):6691-6699 (2009)] was used to identify and isolate chloroquine-responsive units. Our search strategy was intended to maximize the chance of isolating a chloroquine-responsive neuron; it was assumed that such neurons either gave rise to ascending projections, or served as interneurons in segmental scratch-reflex circuitry, and no attempt was presently made to distinguish between these possibilities.
Briefly, a small (˜0.25 μl) intradermal (id) microinjection of chloroquine (100 μg/μl) was made in the ventral hindpaw and a spontaneously active unit in the superficial lumbar dorsal horn (depth<300 um) was isolated. After the spontaneous activity had waned, chloroquine (1 μl, 100 μg/μl) was injected again at the same site through the same needle. […] Responses were usually recorded for at least 30 minutes, although in many cases unit firing declined over a shorter period.
Action potentials were recorded to a computer and counted using Chart software (AD Instruments, Colorado Springs Colo.) and Spike2 software (CED Instruments). Ongoing responses elicited by chloroquine, histamine, or AITC were averaged at 20-second intervals before, during and after the antagonist application, and compared by one way repeated-measures analysis of variance (ANOVA) followed by post-hoc Bonferroni test, with p<0.05 set as significant. The mean firing rate was calculated over a 20-second period 40 seconds after the antagonist application, and compared by one way ANOVA followed by post-hoc Bonferroni test, with p<0.05 set as significant. The criterion for decrease in ongoing firing was >70% decrease below the ongoing activity elicited by pruritogen over a 20-second period 40 seconds after the antagonist application. Mean peak responses elicited by noxious pinch were compared by one way repeated-measures ANOVA followed by post-hoc Bonferroni test, with p<0.05 set as significant. At the end of each experiment, an electrolytic lesion was made at the spinal cord recording site. The spinal cord was postfixed in 10% buffered formalin, cut in 50 μm frozen sections, and examined under the light microscope to identify lesions.

[6] = system: superficial dorsal horn neurons; experiment: In vivo single-unit recording, topical AITC-evoked firing, spinal superfusion of antagonists; set-up: species or system mice
Description: as §1

[7] = system: superficial dorsal horn neurons; experiment: Baseline activity of superficial dorsal horn neurons before and after antagonist application; assay type: in vivo, mice; conditions: ± SEM
Description: as §2
There was no significant effect of any of the antagonists on the baseline activity of superficial dorsal horn neurons that were subsequently show to respond to pruritogens. […] Values prior to, and after administration of each antagonist individually or in combination, are as follows. NK-1 antagonist L-733060: pre-application 0.88 Hz±0.23 (SEM), post-antagonist 0.72 Hz±0.19 (n=10). GRPR antagonist RC-3095: pre-application 0.54 Hz±0.54, post-antagonist: 0.53 Hz±0.53 (n=4). CNQX: pre-application 0.53 Hz±0.14, post-antagonist 0.64 Hz±0.21 (n=22). CNQX+L-733060: pre-application 0.52 Hz±0.17, post-antagonists 0.43 Hz±0.11 (n=26). CNQX+L-733060+RC-3095: pre-application 0.14 Hz±0.06, post-antagonists 0.17 Hz±0.06 (n=9).

DRG cells = experiment: Calcium imaging of DRG cells; conditions: 898 DRG cells; chloroquine 300 μM, histamine 100 μM, 30 sec; ratio increase more than 10%

## COc1ccc(OC(F)(F)F)cc1CN[C@H]1CCCN[C@H]1c1ccccc1 [AV608]
[1]
  Side Effects: well tolerated.

## C[C@@H](O[C@H]1OCCN(Cc2n[nH]c(=O)[nH]2)[C@H]1c1ccc(F)cc1)c1cc(C(F)(F)F)cc(C(F)(F)F)c1 [Aprepitant]
[1]
  Side Effects: generally mild.

## COc1ccc(-n2nnnc2C(F)(F)F)cc1CN[C@H]1CCCN[C@H]1c1ccccc1 [GR205171]
[1]
  Side Effects: well-tolerated

## CC(=O)N1CCN([C@H]2CCN(C(=O)N(C)[C@H](C)c3cc(C(F)(F)F)cc(C(F)(F)F)c3)[C@@H](c3ccc(F)cc3C)C2)CC1 [GW679769]
[1]
  Side Effects: well tolerated,

## FC(F)(F)c1cc(CO[C@H]2CCCN[C@H]2c2ccccc2)cc(C(F)(F)F)c1 [L733060]
[2]
  noxious pinch-evoked response, effect of spinal superfusion: not reduced
[3]; listed as NK-1 antagonist
  histamine-evoked scratching (scratch bouts/30 minutes): neither the NK-1 nor the GRPR antagonist attenuated
[3]; listed as NK-1 receptor antagonist
  histamine-evoked scratching (scratch bouts/30 minutes): not affected
[4]; NS units, vs vehicle
  histamine-evoked response of NS units: failed to reduce
[4]; WDR units, vs vehicle
  histamine-evoked response of WDR units: failed to reduce
[4]; all units
  histamine-evoked firing, effect of spinal superfusion: not significantly different from vehicle
[4]
  Percentages of dorsal horn units that exhibited a decrease of 70% or more in firing rate following spinal superfusion of antagonists: 33% (6/18)
[4]; listed as NK-1 antagonist
  Percentages of dorsal horn units that exhibited a decrease of 70% or more in firing rate following spinal superfusion of antagonists: 33%
[5]; 40-60 s of superfusion, normalized firing, vs vehicle
  chloroquine-evoked firing compared to vehicle superfusion: did not produce a significant reduction in firing compared to vehicle superfusion
[5]; NS units, vs vehicle
  chloroquine-evoked firing in NS cells: but not NS cells
[5]; WDR units, vs vehicle
  chloroquine-evoked firing in WDR cells: significantly reduced
[5]; relative to chloroquine-evoked response prior to spinal superfusion
  chloroquine-evoked firing, effect of spinal superfusion: significantly attenuated after the cessation of superfusion
[6]; topical AITC 75%
  AITC-evoked firing, effect of spinal superfusion: numerically reduced
[6]; topical AITC-evoked firing, superfusion 1 min, L-733060 200 μM, CNQX 100 μM
  Percentages of dorsal horn units that exhibited a decrease of 70% or more in firing rate following spinal superfusion of antagonists: 22% (2/9)
[7]; averaged over 1 min following antagonist application
  baseline neuronal firing rate, post-antagonist: 0.72 Hz
[7]; averaged over 1 min prior to antagonist application
  baseline neuronal firing rate, pre-application: 0.88 Hz

## CC(=O)N1N=C(c2ccc(N)cc2)c2cc3c(cc2C[C@H]1C)OCO3 [Talampanel]
[1]
  Side Effects: Mild (fatigue,

## O=c1[nH]c2cc(C(F)(F)F)c(N3CCOCC3)cc2n(CP(=O)(O)O)c1=O [ZK 200775]
[1]
  Side Effects: Sedation,

## CCN(CC)CCCC(C)Nc1ccnc2cc(Cl)ccc12 (stereo not drawn) [chloroquine]
DRG cells
  percentage of DRG cells imaged that responded: 8.4%

## NCCc1c[nH]cn1 [histamine]
DRG cells
  percentage of DRG cells imaged that responded: 12.9%
